Reference: ChEMBL document CHEMBL3045404, “Structure-Activity Relationships of 2-Chloropyridine-3-carboxamide Fungicides” (J Pestic Sci, 1992)

What follows are molecules tested on Botrytis cinerea (assay: Antifungal activity against Botryotinia fuckeliana infested in cucumber seedling cotyledons after 4 days by pot test).
Type: functional

Point of comparison: CC1(C)OCc2cccc(NC(=O)c3cccnc3Cl)c2O1, pEC90 3.29. Against it:
- CC1(C)CCc2cccc(NC(=O)c3cccnc3Cl)c2O1 — higher, 3.66
- CC1OCc2cccc(NC(=O)c3cccnc3Cl)c21 (stereo unspecified) — lower, 2.93
- CC1SCc2cccc(NC(=O)c3cccnc3Cl)c21 (stereo unspecified) — lower, 2.93
- C=C(C)c1ccccc1NC(=O)c1cccnc1Cl — higher, 3.78
- CC1(C)Oc2cccc(NC(=O)c3cccnc3Cl)c2O1 — lower, 2.76
- CCc1c(C)cccc1NC(=O)c1cccnc1Cl — lower, 2.96
- CC1Cc2cccc(NC(=O)c3cccnc3Cl)c2C1 (stereo unspecified) — within 0.2 log units, 3.11
- CCc1ccccc1NC(=O)c1cccnc1Cl — lower, 2.57
- CCC1OC(C)(C)c2cccc(NC(=O)c3cccnc3Cl)c21 (stereo unspecified) — higher, 3.55
- CC1OC(C)(C)c2cccc(NC(=O)c3cccnc3Cl)c21 (stereo unspecified) — higher, 3.93
- O=C(Nc1ccccc1)c1cccnc1Cl — lower, 2.2
- CCC1CC(C)(CC)c2cccc(NC(=O)c3cccnc3Cl)c21 (stereo unspecified) — higher, 4.58
- CCC1(CC)CCc2cccc(NC(=O)c3cccnc3Cl)c2O1 — higher, 4.41
- O=C(Nc1cccc2c1CCC2)c1cccnc1Cl — lower, 2.68
- CCC1CC(C)(C)c2cccc(NC(=O)c3cccnc3Cl)c21 (stereo unspecified) — higher, 4.75
- CCOc1ccccc1NC(=O)c1cccnc1Cl — lower, 2.48
- CC1CCc2cccc(NC(=O)c3cccnc3Cl)c21 (stereo unspecified) — higher, 4.15
- CC1CC(C)(C)c2cccc(NC(=O)c3cccnc3Cl)c21 (stereo unspecified) — higher, 4.7
- CC1(C)CCc2c(NC(=O)c3cccnc3Cl)cccc21 — lower, 2.97
- CCC1(C)Oc2c(NC(=O)c3cccnc3Cl)cccc2C(C)O1 (stereo unspecified) — higher, 3.57
- CCCCC1(CC)Cc2cccc(NC(=O)c3cccnc3Cl)c2O1 (stereo unspecified) — lower, 3.04
- CCOc1c(NC(=O)c2cccnc2Cl)cccc1C(C)C — within 0.2 log units, 3.32
- CC(C)c1ccccc1NC(=O)c1cccnc1Cl — within 0.2 log units, 3.19
- CC1(C)Cc2cccc(NC(=O)c3cccnc3Cl)c2O1 — higher, 3.84
- CC1CCc2c(NC(=O)c3cccnc3Cl)cccc21 (stereo unspecified) — lower, 3.03
- O=C(Nc1ccccc1-c1ccccc1)c1cccnc1Cl — lower, 2.8

For CCOc1cccc(NC(=O)c2cccnc2Cl)c1, the pEC90 was <2.2.
In the case of CCc1cccc(NC(=O)c2cccnc2Cl)c1, the pEC90 is reported as <2.2.
With CC1Oc2cccc(NC(=O)c3cccnc3Cl)c2C1C (stereo unspecified) the pEC90 was <2.2.
Cc1oc2cccc(NC(=O)c3cccnc3Cl)c2c1C was tested, and the pEC90 was <2.2.
CC(C)Oc1cccc(NC(=O)c2cccnc2Cl)c1 was tested, and the pEC90 was <2.2.
For O=C(Nc1cccc2c1OCC2)c1cccnc1Cl, the pEC90 was <2.2.

What follows are molecules tested on Rhizoctonia solani (assay: Antifungal activity against Rhizoctonia solani infested in rice seedling incubated for 40 hr in moist chamber followed by incubation for 3 days in greenhouse conditions).
Type: functional, organism-based

Point of comparison: CCC1(C)Oc2c(NC(=O)c3cccnc3Cl)cccc2C(C)O1 (stereo unspecified), EC50 13.2 µM. Against it:
- CC1(C)CCc2cccc(NC(=O)c3cccnc3Cl)c2O1 — 110-fold higher, 1450 µM
- CC1OCc2cccc(NC(=O)c3cccnc3Cl)c21 (stereo unspecified) — 40-fold higher, 525 µM
- CC1SCc2cccc(NC(=O)c3cccnc3Cl)c21 (stereo unspecified) — 71-fold higher, 933 µM
- CCOc1cccc(NC(=O)c2cccnc2Cl)c1 — 6.4-fold higher, 85.1 µM
- C=C(C)c1ccccc1NC(=O)c1cccnc1Cl — 89-fold higher, 1170 µM
- CC1(C)OCc2cccc(NC(=O)c3cccnc3Cl)c2O1 — 110-fold higher, 1450 µM
- CCc1cccc(NC(=O)c2cccnc2Cl)c1 — 12-fold higher, 158 µM
- CC1(C)Oc2cccc(NC(=O)c3cccnc3Cl)c2O1 — 58-fold higher, 759 µM
- CCc1c(C)cccc1NC(=O)c1cccnc1Cl — 55-fold higher, 724 µM
- CC1Cc2cccc(NC(=O)c3cccnc3Cl)c2C1 (stereo unspecified) — 52-fold higher, 692 µM
- CC1Oc2cccc(NC(=O)c3cccnc3Cl)c2C1C (stereo unspecified) — 48-fold higher, 631 µM
- CCc1ccccc1NC(=O)c1cccnc1Cl — 150-fold higher, 2000 µM
- CCC1OC(C)(C)c2cccc(NC(=O)c3cccnc3Cl)c21 (stereo unspecified) — within 1.5-fold, 12.3 µM
- Cc1oc2cccc(NC(=O)c3cccnc3Cl)c2c1C — 46-fold higher, 603 µM
- CC1OC(C)(C)c2cccc(NC(=O)c3cccnc3Cl)c21 (stereo unspecified) — within 1.5-fold, 14.1 µM
- CC(C)Oc1cccc(NC(=O)c2cccnc2Cl)c1 — 4.4-fold higher, 57.5 µM
- O=C(Nc1ccccc1)c1cccnc1Cl — 76-fold higher, 1000 µM
- CCC1CC(C)(CC)c2cccc(NC(=O)c3cccnc3Cl)c21 (stereo unspecified) — 2.6-fold higher, 33.9 µM
- CCC1(CC)CCc2cccc(NC(=O)c3cccnc3Cl)c2O1 — 87-fold higher, 1150 µM
- O=C(Nc1cccc2c1CCC2)c1cccnc1Cl — 52-fold higher, 692 µM
- CCC1CC(C)(C)c2cccc(NC(=O)c3cccnc3Cl)c21 (stereo unspecified) — 1.8-fold lower, 7.24 µM
- CCOc1ccccc1NC(=O)c1cccnc1Cl — 83-fold higher, 1100 µM
- CC1CCc2cccc(NC(=O)c3cccnc3Cl)c21 (stereo unspecified) — 48-fold higher, 631 µM
- CC1CC(C)(C)c2cccc(NC(=O)c3cccnc3Cl)c21 (stereo unspecified) — 1.7-fold lower, 7.76 µM
- CC1(C)CCc2c(NC(=O)c3cccnc3Cl)cccc21 — 2.2-fold higher, 28.8 µM
- CCCCC1(CC)Cc2cccc(NC(=O)c3cccnc3Cl)c2O1 (stereo unspecified) — 120-fold higher, 1550 µM
- CCOc1c(NC(=O)c2cccnc2Cl)cccc1C(C)C — 8.5-fold higher, 112 µM
- O=C(Nc1cccc2c1OCC2)c1cccnc1Cl — 120-fold higher, 1620 µM
- CC(C)c1ccccc1NC(=O)c1cccnc1Cl — 110-fold higher, 1510 µM
- CC1(C)Cc2cccc(NC(=O)c3cccnc3Cl)c2O1 — 16-fold higher, 214 µM
- CC1CCc2c(NC(=O)c3cccnc3Cl)cccc21 (stereo unspecified) — 4-fold higher, 52.5 µM
- O=C(Nc1ccccc1-c1ccccc1)c1cccnc1Cl — higher, > 6310 µM
